US8962684B2, “Antioxidant composition” (Shiseido Company, Ltd., priority 2009, dated 2015)

What was measured:
[1] = system: human neonatal skin fibroblast cells (Cryo NHDF-Neo); test: Antioxidant effect on oxidative damages induced by hydrogen peroxide (AlamarBlue viable cell ratio); format: cell-based; conditions: for antioxidant effect on hydrogen peroxide: conclusion in words
Experimental: (§1) For the evaluation of an antioxidant effect on hydrogen peroxide, human neonatal skin fibroblast cells (trade name: Cryo NHDF-Neo, manufactured by Sankyo Junyaku Co., Ltd.) were inoculated to a 24-well plate to have 1×10^5 cells per well. The cells were then cultured for four hours in a medium for cell culture (trade name: D-MEM (1 g/L glucose), manufactured by Wako Pure Chemical Industries) supplemented with 10% bovine fetal serum (herein below, referred to as a “standard medium”) in a 5% CO2 and saturated water vapor atmosphere at 37° C. (degrees Celsius). For the evaluation of an antioxidant effect on AAPH, antibiotics (penicillin, streptomycin, and fungizone) were supplemented to the standard medium and the cells were cultured for one day.
(§2) Subsequently, the culture medium was switched to a medium for cell culture (trade name: D-MEM (1 g/L glucose), manufactured by Wako Pure Chemicals Industries) supplemented with 0.5% bovine fetal serum (herein below, referred to as “low-serum medium”) to which 0.01% or 0.05% carnosine, or 0.1 μM (micro-molar) or 10 μM (micro-molar) D- or L-aspartic acid had been added, and the cells were cultured for two days under atmosphere of 5% CO2 and saturated moisture at 37° C. (degrees Celsius). For the experiment for the evaluation of oxidative damages on AAPH, the culture medium was switched to the medium for cell culture to which 5 ppm or 100 ppm carnosine, or 10 μM (micro-molar) D- or L-aspartic acid had been further added, and the cells were cultured for two days. The low-serum medium described above to which neither carnosine nor aspartic acid had been added was employed as a negative control.
(§3) After culturing for two days, 1 mM or 4 mM hydrogen peroxide, or 50 mM or 100 mM AAPH was added to the medium for evaluating an antioxidant effect, and the antioxidant effect was evaluated for carnosine or aspartic acid. The low-serum medium described above to which neither hydrogen peroxide nor AAPH had been added was employed as a control for evaluation of toxicity of an antioxidant when no oxidant was added.
(§4) Two hours after the addition of hydrogen peroxide or AAPH, AlarmarBlue (trade name: Biosource, manufactured by Biosource International Inc.) was added to have final concentration of 10%. Two to three hours later, according to the methods by Ahmed S. A. et al. (J. Immunol. Method., 170, 211-224 (1994)) and the instructions provided by the manufacturer, the fluorescent intensity of the supernatant was measured with an excitation wavelength of 544 nm, and an emission wavelength of 590 nm.

[2] = system: human neonatal skin fibroblast cells (Cryo NHDF-Neo); test: Antioxidant effect on oxidative damages induced by AAPH (AlamarBlue viable cell ratio); format: cell-based; conditions: for antioxidant effect on AAPH: conclusion in words
Experimental: as §1, §2, §3, §4

[3] = 1 mM hydrogen peroxide, test substance 0.1 μM
[4] = 1 mM hydrogen peroxide, test substance 10 μM
[5] = 4 mM hydrogen peroxide, test substance 0.1 μM
[6] = 4 mM hydrogen peroxide, test substance 10 μM
[7] = without addition of an oxidant (toxicity control), test substance 0.1 μM
[8] = without addition of an oxidant (toxicity control), test substance 10 μM
[9] = 100 mM AAPH, test substance 10 μM
[10] = without addition of the oxidant (toxicity control), test substance 10 μM

Row | Structure (SMILES) | ratio of viable cells [1, 3] [%] | ratio of viable cells [1, 4] [%] | ratio of viable cells [1, 5] [%] | ratio of viable cells [1, 6] [%] | antioxidant effect on hydrogen peroxide [1] | ratio of viable cells [1, 7] [%] | ratio of viable cells [1, 8] [%] | ratio of viable cells [2, 9] [%] | antioxidant effect on AAPH [2] | ratio of viable cells [2, 10] [%] | ratio of viable cells ([1]; 1 mM hydrogen peroxide, test substance 0.01%) [%] | ratio of viable cells ([1]; 1 mM hydrogen peroxide, test substance 0.05%) [%] | ratio of viable cells ([1]; 4 mM hydrogen peroxide, test substance 0.01%) [%] | ratio of viable cells ([1]; 4 mM hydrogen peroxide, test substance 0.05%) [%] | ratio of viable cells ([1]; without addition of an oxidant (toxicity control), test substance 0.01%) [%] | ratio of viable cells ([1]; without addition of an oxidant (toxicity control), test substance 0.05%) [%] | ratio of viable cells ([2]; 100 mM AAPH, test substance 5 ppm) [%] | ratio of viable cells ([2]; 100 mM AAPH, test substance 100 ppm) [%] | ratio of viable cells ([2]; without addition of an oxidant (toxicity control), test substance 5 ppm) [%] | ratio of viable cells ([2]; without addition of an oxidant (toxicity control), test substance 100 ppm) [%]
1 | N[C@H](CC(=O)O)C(=O)O [D-aspartic acid] | 62 | 63 | 29 | 34 | concentration-dependent antioxidant effect | 86 | 97 | 96 | more potent antioxidant effect on AAPH compared to L-aspartic acid | 102 | – | – | – | – | – | – | – | – | – | –
2 | N[C@@H](CC(=O)O)C(=O)O [L-aspartic acid] | 62 | 62 | 33 | 32 | not observed | 88 | 97 | 69 | antioxidant effect on AAPH only | 80 | – | – | – | – | – | – | – | – | – | –
3 | NCCC(=O)N[C@@H](Cc1cnc[nH]1)C(=O)O [carnosine, reference compound] | – | – | – | – | confirmed | – | – | – | confirmed | – | 51 | 53 | 21 | 45 | 100 | 97 | 60 | 85 | 93 | 103
